ChEMBL document CHEMBL4725240, “Non-'classical' MEKs: A review of MEK3-7 inhibitors” (Bioorg Med Chem Lett, 2020)
Blank lines part the entries; values can stand above or below the compound they belong to.

Assays:
[1] = target: T1, Dual specificity mitogen-activated protein kinase kinase 6 (Homo sapiens, UniProt P52564); test: Inhibition of MEK6 (unknown origin)
T1 sequence (P52564 whole entry): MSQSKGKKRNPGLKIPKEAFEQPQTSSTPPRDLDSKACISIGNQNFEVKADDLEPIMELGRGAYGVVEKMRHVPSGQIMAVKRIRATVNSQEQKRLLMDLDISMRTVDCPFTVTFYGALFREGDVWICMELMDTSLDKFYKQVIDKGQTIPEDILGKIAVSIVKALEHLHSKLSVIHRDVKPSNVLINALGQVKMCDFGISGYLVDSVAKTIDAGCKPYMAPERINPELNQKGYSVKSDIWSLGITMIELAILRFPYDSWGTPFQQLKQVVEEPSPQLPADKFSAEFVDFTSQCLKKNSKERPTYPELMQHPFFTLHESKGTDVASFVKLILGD

[2] = species: Homo sapiens; test: Selectivity ratio of IC50 for MEK2 (unknown origin) to IC50 for MEK6 (unknown origin)
[3] = species: Homo sapiens; test: Selectivity ratio of IC50 for MEK4 (unknown origin) to IC50 for MEK6 (unknown origin)
[4] = species: Homo sapiens; test: Selectivity ratio of IC50 for MEK3 (unknown origin) to IC50 for MEK6 (unknown origin)
[5] = species: Homo sapiens; test: Selectivity ratio of IC50 for MEK1 (unknown origin) to IC50 for MEK6 (unknown origin)
[6] = species: Homo sapiens; test: Selectivity ratio of IC50 for CDC25B (unknown origin) to IC50 for MEK7 (unknown origin)
[7] = target: T2, Dual specificity mitogen-activated protein kinase kinase 7 (Homo sapiens, UniProt O14733); test: Inhibition of MEK7 (unknown origin)
T2 sequence (O14733 whole entry): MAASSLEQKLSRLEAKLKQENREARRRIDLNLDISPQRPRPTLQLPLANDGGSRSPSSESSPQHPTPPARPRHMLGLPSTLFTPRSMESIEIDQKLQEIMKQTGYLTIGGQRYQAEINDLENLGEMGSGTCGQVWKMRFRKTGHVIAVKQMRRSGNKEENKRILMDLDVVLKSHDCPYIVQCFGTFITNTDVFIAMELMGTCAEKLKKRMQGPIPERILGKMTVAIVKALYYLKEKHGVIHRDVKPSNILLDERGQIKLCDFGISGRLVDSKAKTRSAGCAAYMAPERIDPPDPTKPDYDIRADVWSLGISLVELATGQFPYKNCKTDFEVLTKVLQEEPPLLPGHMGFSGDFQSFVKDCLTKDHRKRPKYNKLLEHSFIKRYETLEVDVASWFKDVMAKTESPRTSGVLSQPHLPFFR

[8] = species: Homo sapiens; test: Selectivity ratio of IC50 for CDC25A (unknown origin) to IC50 for MEK7 (unknown origin)
[9] = target: T3, Tyrosine-protein kinase JAK3 (Homo sapiens) (UniProt P52333); test: Inhibition of recombinant human N-terminal His6-tagged JAK3 (781 to end residues) expressed in baculovirus infected Sf21 cells at 1 uM relative to control
T3 sequence (whole entry): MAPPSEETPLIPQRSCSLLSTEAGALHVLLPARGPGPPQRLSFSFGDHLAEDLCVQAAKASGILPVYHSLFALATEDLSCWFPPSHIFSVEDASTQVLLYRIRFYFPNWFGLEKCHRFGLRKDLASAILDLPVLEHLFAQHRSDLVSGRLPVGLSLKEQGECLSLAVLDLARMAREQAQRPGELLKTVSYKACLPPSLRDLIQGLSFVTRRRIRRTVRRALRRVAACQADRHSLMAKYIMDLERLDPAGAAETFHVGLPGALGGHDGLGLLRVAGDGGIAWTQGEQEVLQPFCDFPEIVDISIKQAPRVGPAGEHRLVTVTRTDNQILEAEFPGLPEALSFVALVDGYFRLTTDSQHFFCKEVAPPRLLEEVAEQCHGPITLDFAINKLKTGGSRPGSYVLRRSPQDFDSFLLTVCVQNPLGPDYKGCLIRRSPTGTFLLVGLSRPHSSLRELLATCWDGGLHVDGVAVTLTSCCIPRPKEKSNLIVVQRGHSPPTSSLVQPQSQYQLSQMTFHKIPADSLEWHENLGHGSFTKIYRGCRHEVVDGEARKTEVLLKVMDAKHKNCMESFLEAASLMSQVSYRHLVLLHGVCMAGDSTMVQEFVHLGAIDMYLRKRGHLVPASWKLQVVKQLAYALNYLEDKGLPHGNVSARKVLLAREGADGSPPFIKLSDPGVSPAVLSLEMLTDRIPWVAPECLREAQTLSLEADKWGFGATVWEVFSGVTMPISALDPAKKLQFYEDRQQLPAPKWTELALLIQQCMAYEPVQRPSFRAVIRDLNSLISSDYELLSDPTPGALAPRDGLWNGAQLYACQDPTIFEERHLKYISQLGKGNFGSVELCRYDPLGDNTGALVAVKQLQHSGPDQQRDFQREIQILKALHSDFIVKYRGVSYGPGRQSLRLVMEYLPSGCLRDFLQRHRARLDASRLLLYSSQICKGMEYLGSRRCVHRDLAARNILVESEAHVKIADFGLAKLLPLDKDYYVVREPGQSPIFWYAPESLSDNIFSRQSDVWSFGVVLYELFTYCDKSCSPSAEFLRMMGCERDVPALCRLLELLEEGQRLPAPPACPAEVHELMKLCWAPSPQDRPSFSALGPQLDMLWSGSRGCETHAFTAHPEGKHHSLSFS

[10] = target: Leucine-rich repeat serine/threonine-protein kinase 2 (Homo sapiens) (UniProt Q5S007); test: Inhibition of wild type full length recombinant human LRRK2 (H970 to E2527 residues) at 1 uM relative to control
Leucine-rich repeat serine/threonine-protein kinase 2 (Homo sapiens), sequence (Q5S007 whole entry, the tested form may be a part): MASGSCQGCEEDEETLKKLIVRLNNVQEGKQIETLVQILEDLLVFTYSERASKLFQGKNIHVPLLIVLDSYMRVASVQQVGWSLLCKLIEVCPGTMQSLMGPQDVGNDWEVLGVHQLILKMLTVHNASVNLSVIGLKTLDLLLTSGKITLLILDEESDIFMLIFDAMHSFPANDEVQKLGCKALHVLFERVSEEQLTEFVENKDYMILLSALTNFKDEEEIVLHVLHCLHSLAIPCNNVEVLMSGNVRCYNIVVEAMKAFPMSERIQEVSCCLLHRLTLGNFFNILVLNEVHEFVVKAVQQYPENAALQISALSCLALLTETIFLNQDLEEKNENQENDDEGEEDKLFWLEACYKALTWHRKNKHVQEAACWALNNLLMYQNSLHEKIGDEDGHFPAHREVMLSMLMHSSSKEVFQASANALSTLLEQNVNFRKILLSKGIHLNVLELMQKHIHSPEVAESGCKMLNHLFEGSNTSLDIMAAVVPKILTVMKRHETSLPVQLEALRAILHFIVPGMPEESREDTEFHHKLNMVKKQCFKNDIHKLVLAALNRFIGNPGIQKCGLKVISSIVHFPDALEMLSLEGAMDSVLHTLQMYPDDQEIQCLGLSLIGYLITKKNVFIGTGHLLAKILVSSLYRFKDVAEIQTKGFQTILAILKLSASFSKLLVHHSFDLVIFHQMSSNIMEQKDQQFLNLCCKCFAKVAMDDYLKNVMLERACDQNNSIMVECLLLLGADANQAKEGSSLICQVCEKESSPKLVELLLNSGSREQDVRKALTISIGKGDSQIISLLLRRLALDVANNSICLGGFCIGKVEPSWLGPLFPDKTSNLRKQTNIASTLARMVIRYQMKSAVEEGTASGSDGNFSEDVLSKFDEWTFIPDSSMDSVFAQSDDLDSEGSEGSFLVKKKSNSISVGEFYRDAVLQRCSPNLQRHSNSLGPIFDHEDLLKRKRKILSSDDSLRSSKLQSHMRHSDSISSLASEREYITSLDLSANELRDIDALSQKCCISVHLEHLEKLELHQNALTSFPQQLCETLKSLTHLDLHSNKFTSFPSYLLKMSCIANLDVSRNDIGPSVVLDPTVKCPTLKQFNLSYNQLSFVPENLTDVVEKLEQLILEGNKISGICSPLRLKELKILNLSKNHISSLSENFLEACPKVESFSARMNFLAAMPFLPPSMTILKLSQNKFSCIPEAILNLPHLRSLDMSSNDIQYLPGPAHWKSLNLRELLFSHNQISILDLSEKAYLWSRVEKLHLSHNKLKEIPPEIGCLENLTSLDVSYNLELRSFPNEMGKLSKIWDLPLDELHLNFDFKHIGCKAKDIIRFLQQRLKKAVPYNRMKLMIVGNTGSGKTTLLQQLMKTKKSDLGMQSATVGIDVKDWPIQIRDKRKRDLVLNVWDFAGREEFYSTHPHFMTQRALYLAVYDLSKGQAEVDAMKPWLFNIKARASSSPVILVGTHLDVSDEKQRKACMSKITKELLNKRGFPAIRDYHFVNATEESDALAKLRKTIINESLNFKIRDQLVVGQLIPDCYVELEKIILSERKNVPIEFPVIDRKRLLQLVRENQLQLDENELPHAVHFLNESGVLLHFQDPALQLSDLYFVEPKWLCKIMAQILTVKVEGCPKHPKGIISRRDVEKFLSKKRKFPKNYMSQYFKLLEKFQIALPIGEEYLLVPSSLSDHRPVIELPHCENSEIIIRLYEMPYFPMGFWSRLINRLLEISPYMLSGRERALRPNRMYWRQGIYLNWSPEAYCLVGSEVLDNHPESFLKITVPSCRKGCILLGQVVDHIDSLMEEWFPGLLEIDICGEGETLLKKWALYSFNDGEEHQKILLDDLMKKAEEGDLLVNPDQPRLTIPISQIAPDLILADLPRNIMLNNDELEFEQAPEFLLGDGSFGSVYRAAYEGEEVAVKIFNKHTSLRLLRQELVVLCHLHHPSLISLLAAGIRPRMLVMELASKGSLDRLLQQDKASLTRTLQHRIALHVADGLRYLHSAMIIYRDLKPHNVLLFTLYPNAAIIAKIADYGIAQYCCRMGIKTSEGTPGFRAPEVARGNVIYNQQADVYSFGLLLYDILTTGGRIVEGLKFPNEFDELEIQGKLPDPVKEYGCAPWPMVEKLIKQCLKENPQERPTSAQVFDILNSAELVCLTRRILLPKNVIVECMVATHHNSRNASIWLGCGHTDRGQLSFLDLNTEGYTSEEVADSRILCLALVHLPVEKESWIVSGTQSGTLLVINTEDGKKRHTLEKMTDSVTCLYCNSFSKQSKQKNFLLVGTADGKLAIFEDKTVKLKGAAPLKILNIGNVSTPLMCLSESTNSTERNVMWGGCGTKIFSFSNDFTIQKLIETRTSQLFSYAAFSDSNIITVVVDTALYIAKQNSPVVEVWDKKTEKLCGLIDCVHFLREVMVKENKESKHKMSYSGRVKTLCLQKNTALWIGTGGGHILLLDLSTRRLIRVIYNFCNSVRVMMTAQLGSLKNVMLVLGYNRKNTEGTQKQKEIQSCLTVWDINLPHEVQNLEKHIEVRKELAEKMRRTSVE

[11] = target: T4, Dual specificity mitogen-activated protein kinase kinase 4 (Homo sapiens) (UniProt P45985); test: Inhibition of wild type recombinant human MEK4 (S84 to D399 residues) at 1 uM relative to control
T4 sequence (whole entry): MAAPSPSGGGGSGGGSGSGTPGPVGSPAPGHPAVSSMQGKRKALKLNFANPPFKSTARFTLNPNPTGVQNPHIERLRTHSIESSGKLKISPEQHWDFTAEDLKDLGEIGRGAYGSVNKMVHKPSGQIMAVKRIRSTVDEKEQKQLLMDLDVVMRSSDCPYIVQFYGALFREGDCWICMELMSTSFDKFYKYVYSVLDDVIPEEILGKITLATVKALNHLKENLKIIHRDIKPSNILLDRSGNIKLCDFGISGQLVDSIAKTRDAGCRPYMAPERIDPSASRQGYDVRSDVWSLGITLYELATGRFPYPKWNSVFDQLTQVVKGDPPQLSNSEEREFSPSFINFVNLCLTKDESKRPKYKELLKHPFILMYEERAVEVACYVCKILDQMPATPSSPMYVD

[12] = target: Aurora kinase B (Homo sapiens) (UniProt Q96GD4); test: Inhibition of N- terminal GST-tagged/His6-tagged human recombinant full length Aurora kinase B ([…]) expressed in baculovirus sf21 cells at 1 uM relative to control
Aurora kinase B (Homo sapiens), sequence (Q96GD4 whole entry): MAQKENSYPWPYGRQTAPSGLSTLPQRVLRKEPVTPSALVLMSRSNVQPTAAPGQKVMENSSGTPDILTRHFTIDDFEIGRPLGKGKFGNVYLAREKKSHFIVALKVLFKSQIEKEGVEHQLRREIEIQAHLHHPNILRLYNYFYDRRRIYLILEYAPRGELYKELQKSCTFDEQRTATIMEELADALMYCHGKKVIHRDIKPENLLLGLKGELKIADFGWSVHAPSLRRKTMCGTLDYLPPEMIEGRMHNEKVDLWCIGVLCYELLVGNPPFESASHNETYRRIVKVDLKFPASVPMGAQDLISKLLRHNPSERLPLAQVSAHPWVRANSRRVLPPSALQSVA

[13] = species: Homo sapiens; test: Selectivity ratio of IC50 for TGFbetaR1 (unknown origin) to IC50 for MEK5 (unknown origin)
[14] = species: Homo sapiens; test: Selectivity ratio of IC50 for ERK5 (unknown origin) to IC50 for MEK5 (unknown origin)
[15] = Inhibition of flag-tagged MEK4 Q253Y/I258V/R262M mutant (unknown origin) expressed in HEK-293T cells after 20 mins in presence of [32P]-ATP; type: cell-based, Homo sapiens
[16] = Inhibition of HA-tagged MEK7 R283Y/K288V/R292M mutant (unknown origin) expressed in HEK-293T cells after 20 mins in presence of [32P]-ATP; type: cell-based, Homo sapiens

Structure (SMILES): C=C(CC)C(=O)c1ccc(OCC(=O)O)c(Cl)c1Cl [ETHACRYNIC ACID]
IC50 [1]: 4.5 µM
Ratio IC50 [2]: 9
Ratio IC50 [3]: 3
Ratio IC50 [4]: 3
Ratio IC50 [5]: 12

Structure (SMILES): O=C(O)CCSC1=CC(=O)c2ccccc2C1=O
IC50 [7]: 0.23 µM

Structure (SMILES): COc1ccc2c(Cc3ccc(O[Si](C)(C)C(C)(C)C)cc3)c3[n+](cc2c1OC)CCc1ccccc1-3
IC50 [15]: 6 µM
IC50 [16]: 10 µM

Structure (SMILES): C=CC(=O)Nc1cccc(-c2n[nH]c3cc(C)ccc23)c1
inhibition [10]: > 75%
inhibition [11]: > 75%
inhibition [12]: > 75%

Results, then the compound that gave them:

Ratio IC50 [6]: 12
IC50 [7]: 1.9 µM
Ratio IC50 [8]: 17
Structure (SMILES): O=C(O)c1cccc(NC2=CC(=O)c3ccccc3C2=O)c1

inhibition [9]: > 75%
inhibition [10]: > 75%
inhibition [11]: > 75%
inhibition [12]: > 75%
Structure (SMILES): C=CC(=O)Nc1cccc(-c2n[nH]c3ccccc23)c1

Ratio IC50 [13]: 580
Ratio IC50 [14]: 60
Structure (SMILES): CN(C)Cc1cccc(N/C(=C2\C(=O)Nc3cc(C(N)=O)ccc32)c2ccccc2)c1
